{
  "source": "patent US11878001B2",
  "about": "“Use of mavoglurant in the reduction of cocaine use or in preventing relapse into cocaine use” (NOVARTIS AG, priority 2017, dated 2024)",
  "key": {"[1]": {"details": "in vivo; cited from earlier work"}, "Sprague-Dawley rats [2]": {"system": "Sprague-Dawley rats", "assay": "Acute effects on intravenous cocaine self-administration (FR5) in rats, Phase I", "format": "in vivo", "details": "cocaine 0.3 mg/kg/infusion", "from_the_text": "(§1) Evaluation of the Effects of Mavoglurant on Cocaine Dependence and Cocaine Reinstatement Using the Intravenous Self-Administration Model in Sprague-Dawley Rats\n(§2) Adult male Sprague-Dawley rats (300-325 g at arrival) from Harlan Laboratory (Indiana, USA) were used. Upon arrival, the rats were assigned a unique identification numbers (tail marks). Animals were single housed in suspended polycarbonate rat cages with filter tops, and were acclimated for up to 7 days. All rats were examined, handled, and weighed prior to initiation of the study to assure adequate health and suitability. During the course of the study, 12 h/12 h light/dark cycles were maintained. The room temperature was 21-23° C. with a relative humidity maintained at 30-70%. Water was provided ad libitum for the duration of the study.\nCocaine Hydrochloride (Sigma-Aldrich, USA) (1.05 mg/ml which is equivalent to 0.3 mg/kg/infusion under 350 g body weight and 0.1 ml/infusion rate) was dissolved in saline (0.9% NaCl). The formulation was a clear solution.\n(§3) Mavoglurant (free form) was formulated in 0.5% methylcellulose (MC) at 1, 3 and 10 mg/kg and administered orally at a dose volume of 1 ml/kg 60 minutes prior to test.\nIntravenous drug self-administration took place in sound attenuated operant chambers equipped with an exhaust fan (Med Associates, VT). Each chamber contained two levers situated on one wall of the chamber. Only one of the two levers was active (located on the left side). Pressing the active lever caused delivery of reinforcer (food or cocaine). […] A stimulus light was located above each lever, but only the one above the active lever was on during the timeout period (defined below). A house light (providing illumination) was located at the top of opposite wall. For food training (see details below), a pellet receptacle was situated between the two levers for delivery of food pellets (Bio-Serv's Dustless Precision Pellets #F0165, 45 mg). […]"}, "Sprague-Dawley rats [3]": {"system": "Sprague-Dawley rats", "assay": "Cue-induced reinstatement of the cocaine self-administration response after extinction, Phase II", "format": "in vivo", "details": "10 mg/kg PO, 1 hour prior to test; after 9-day extinction; N=14-15 per group", "from_the_text": "as §1, §2, §3\nIntravenous drug self-administration took place in sound attenuated operant chambers equipped with an exhaust fan (Med Associates, VT). Each chamber contained two levers situated on one wall of the chamber. […]\nDuring the reinstatement session, which occurred one day after the last extinction session, rats were presented the cues (flash+tone) at the beginning of the session and their lever-press responses recorded. […]"}, "mice": {"system": "mice", "details": "cited from earlier work"}, "rats": {"system": "rats", "details": "cited from earlier work"}, "NMDA receptors": {"system": "NMDA receptors", "details": "cited from earlier work"}, "monoamine oxidase": {"system": "monoamine oxidase", "details": "cited from earlier work"}, "[4]": {"biological_target": "norepinephrine transporter (Homo sapiens, UniProt P23975)", "sequence (P23975 whole entry, species assumed)": "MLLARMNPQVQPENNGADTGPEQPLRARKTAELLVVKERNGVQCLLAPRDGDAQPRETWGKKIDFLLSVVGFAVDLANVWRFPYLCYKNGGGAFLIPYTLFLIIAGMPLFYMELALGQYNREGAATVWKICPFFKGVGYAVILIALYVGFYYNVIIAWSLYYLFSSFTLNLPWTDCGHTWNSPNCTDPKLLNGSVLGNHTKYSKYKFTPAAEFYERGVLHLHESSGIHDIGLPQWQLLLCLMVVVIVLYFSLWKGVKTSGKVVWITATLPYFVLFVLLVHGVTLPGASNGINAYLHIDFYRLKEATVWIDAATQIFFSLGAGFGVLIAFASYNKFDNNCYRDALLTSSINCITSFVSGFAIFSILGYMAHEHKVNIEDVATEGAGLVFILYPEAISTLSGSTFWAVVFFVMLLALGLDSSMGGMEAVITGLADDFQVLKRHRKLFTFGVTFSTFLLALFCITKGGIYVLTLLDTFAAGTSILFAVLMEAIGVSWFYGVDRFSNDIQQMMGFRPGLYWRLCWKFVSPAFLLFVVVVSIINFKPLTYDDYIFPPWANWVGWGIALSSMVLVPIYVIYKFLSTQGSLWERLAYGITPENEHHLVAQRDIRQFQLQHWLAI", "details": "cited from earlier work"}, "cytochrome P450 1A2": {"biological_target": "T1, cytochrome P450 1A2 (Homo sapiens, UniProt P05177)", "T1 sequence (P05177 1-516)": "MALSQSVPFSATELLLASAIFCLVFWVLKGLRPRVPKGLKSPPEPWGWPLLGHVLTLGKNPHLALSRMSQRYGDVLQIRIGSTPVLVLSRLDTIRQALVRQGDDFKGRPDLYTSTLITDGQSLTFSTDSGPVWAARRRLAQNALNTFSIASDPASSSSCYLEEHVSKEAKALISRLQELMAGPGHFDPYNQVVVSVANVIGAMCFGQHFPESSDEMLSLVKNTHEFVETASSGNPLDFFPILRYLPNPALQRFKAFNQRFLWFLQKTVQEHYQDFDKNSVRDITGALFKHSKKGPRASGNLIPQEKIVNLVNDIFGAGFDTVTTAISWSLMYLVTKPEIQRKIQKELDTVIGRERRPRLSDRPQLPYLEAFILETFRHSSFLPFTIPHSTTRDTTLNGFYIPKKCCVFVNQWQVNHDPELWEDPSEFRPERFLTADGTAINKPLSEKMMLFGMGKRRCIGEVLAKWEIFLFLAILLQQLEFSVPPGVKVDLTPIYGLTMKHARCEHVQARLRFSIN", "details": "cited from earlier work"}},
  "note": "“Also recorded” adds a separate entry of the source.",
  "data": [
    {"smiles": "CNCCCN1c2ccccc2CCc2ccccc21", "note": "[desipramine]", "values": [
      {"measurement": "cocaine craving", "setting": "[1]", "value": "reduce"},
      {"measurement": "cocaine use", "setting": "[1]", "value": "reduce"},
      {"measurement": "symptoms of cocaine withdrawal", "setting": "[1]", "value": "alleviate symptoms of cocaine withdrawal"}
    ]},
    {"smiles": "COC(=O)N1CC[C@@H]2[C@H]1CCC[C@@]2(O)C#Cc1cccc(C)c1", "note": "[mavoglurant, (−)-(3aR,4S,7aR)-4-Hydroxy-4-m-tolylethynyl-octahydro-indole-1-carboxylic acid methyl ester]", "values": [
      {"measurement": "responding on the active lever (cocaine self-administration)", "setting": "Sprague-Dawley rats [2]; 3 mg/kg orally, 60 minutes prior to test, post hoc p<0.10, N=12", "value": "tended to reduce responding on the active lever"},
      {"measurement": "responding on the active lever (cocaine self-administration)", "setting": "Sprague-Dawley rats [2]; 10 mg/kg PO, 1 hour prior to test, post hoc p<0.001, N=12", "value": "significantly reduced responding"},
      {"measurement": "responding on the active lever (cocaine self-administration)", "setting": "Sprague-Dawley rats [2]; 10 mg/kg PO, 1 hour prior to test, post hoc p<0.001, N=12, listed as Mavoglurant", "value": "significantly reduced cocaine self-administration"},
      {"measurement": "cue-induced reinstatement of the self-administration response", "setting": "Sprague-Dawley rats [3]", "value": "cue-induced reinstatement was suppressed; also recorded: completely prevented cue-induced reinstatement"}
    ]},
    {"smiles": "Cc1cccc(C#Cc2ccccc2)n1", "note": "[MPEP, 2-methyl-6-(2-phenylethynyl)pyridine]", "values": [
      {"measurement": "cocaine self-administration", "setting": "mice", "value": "decreased cocaine self-administration"},
      {"measurement": "cocaine self-administration", "setting": "rats", "value": "decreased cocaine self-administration"},
      {"measurement": "off-target effects on NMDA receptors", "setting": "NMDA receptors", "value": "off-target effects"},
      {"measurement": "off-target effects on monoamine oxidase", "setting": "monoamine oxidase", "value": "off-target effects"},
      {"measurement": "off-target effects on the norepinephrine transporter", "setting": "[4]", "value": "off-target effects"}
    ]},
    {"smiles": "Cc1nc(C#Cc2cccnc2)cs1", "note": "[MTEP, 3-[2-(2-methylthiazol-4-yl)ethynyl]pyridine]", "values": [
      {"measurement": "cocaine self-administration", "setting": "mice", "value": "decreased cocaine self-administration"},
      {"measurement": "cocaine self-administration", "setting": "rats", "value": "decreased cocaine self-administration"},
      {"measurement": "inhibition of cytochrome P450 1A2", "setting": "cytochrome P450 1A2", "value": "potent inhibition"}
    ]}
  ]
}
